Source: paper PMC8348983 (International Journal of Molecular Sciences, 2021)

Experiments:
[1] = target: T1, MAO-B (Homo sapiens, UniProt P27338); experiment: MAO-B inhibition assay; type: biochemical
T1 construct: purchased Merck, Germany
T1 sequence (P27338 1-520): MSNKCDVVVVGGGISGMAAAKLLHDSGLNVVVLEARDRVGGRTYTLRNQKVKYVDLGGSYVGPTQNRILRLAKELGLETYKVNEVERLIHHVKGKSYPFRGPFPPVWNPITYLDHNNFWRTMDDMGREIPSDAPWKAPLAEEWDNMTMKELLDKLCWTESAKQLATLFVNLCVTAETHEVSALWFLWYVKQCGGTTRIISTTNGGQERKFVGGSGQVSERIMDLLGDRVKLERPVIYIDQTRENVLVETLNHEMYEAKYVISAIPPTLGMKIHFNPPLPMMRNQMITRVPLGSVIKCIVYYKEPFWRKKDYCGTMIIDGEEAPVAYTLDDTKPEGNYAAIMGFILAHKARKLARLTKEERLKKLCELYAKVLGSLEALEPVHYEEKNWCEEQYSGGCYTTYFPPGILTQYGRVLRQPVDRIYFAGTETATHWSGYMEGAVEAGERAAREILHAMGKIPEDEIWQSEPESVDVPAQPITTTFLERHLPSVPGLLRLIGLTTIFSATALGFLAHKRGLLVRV
Protocol: Since monoamine oxidase (MAO; EC 1.4.3.4) inhibitors are considered as neuroprotective agents, compound 6 was screened at two concentrations (1 and 10 µM) for its inhibition potential against both isoforms of human MAOs. […]; MAO inhibition assay was performed as previously described. Supplementary Materials provides details of this assay. […]
The reaction mixture contains 2.5mg/mL MAO -A or 6.25mg/mLMAO-B enzyme (Merck, Germany) and inhibitor in final concentrations of […] in 50 mM potassiumphosphate buffer with 20% (v/v) glycerol (pH 7.5). […] The sample was then centrifuged (16.500 g) for10 min.The deamination product of kynuramine formed during the enzymatic reaction 4-hydroxyquinoline (4-HQ) was determined by UHPLC-MS on a Zorbax RRHD Eclipse plus C18 column (2.1 mm x 50 mm, […]) (Agilent Technologies, USA), by using a 6470 Series Triple Quadrupole mass spectrometer (Agilent Technologies, USA) as detector with electrospray ionisation – positive ion mode. […]
0.1% formic acid in water; (B) 0.1% formic acid in acetonitrile. IC 50of individual compounds were determined by nonlinear regression usingGraphPad Prism 8.0 (GraphPad Software, USA).

[2] = target: T2, hBuChE (Homo sapiens, UniProt P06276); experiment: Kinetic study of hBuChE inhibition; type: biochemical
T2 construct: was used as a source of BChE and was prepared from heparinized human blood; from tissue; host or cells: human plasma from heparinized human blood
Protocol: Compound 6, the derivative with the most robust inhibitory activity, was subjected to enzyme kinetics analysis to determine the mode of hBuChE inhibition. Inhibition kinetics were elucidated from velocity curves that were measured at several concentrations of substrate butyrylthiocholine and test compound. The type of enzyme inhibition and corresponding kinetic parameters (Ki and Ki′) were determined by nonlinear regression analysis. Results for each type of model of inhibition (competitive, non-competitive, uncompetitive, and mixed) were compared by the sum-of-squares F-test. […].
Kinetic studies employed the same procedure that was previously described. Supplementary Materials provides details of this assay.
Biological assays in detail hAChE and hBuChE Inhibition Assay
The inhibitory activities of prepared compounds and standards against human recombinant AChE (E.C.
3.1.1.7) and human plasma BChE (E.C. 3.1.1.8) were determined using modified Ellman’s method […]
cholinesterase activity). Human recombinant AChE, phosphate buffer (PB, pH = 7.4), 5,5’ -dithio-bis(2-nitrobenzoic) acid (Ellman’s reagent, DTNB), acetylthiocholine (ATCh), butyrylthiocholine (BTCh), and other used compounds were purchased from Sigma-Aldrich (Prague, Czech Republic). […]
The solutions of she corresponding cholinesterase in PB were prepared up to the final activity 0.002 U/µL. […] The increase of absorbance was measured at 412 nm using Multimode microplate reader Synergy 2 (BioTek Inc., Winooski, VT, USA). For the calculation of the resulting measured activity (the percentage of inhibition I) following formula was used: […]
where ΔAi indicates absorbance change provided by adequate enzyme exposed to corresponding inhibitor and ΔA0 indicates absorbance change when a solution of PB was added instead of a solution of inhibitor. […]
The kinetic study hBuChE was performed by using above mentioned modified Ellman’s method. The values of Vmax and Km of the Michaelis-Menten kinetics as well as the values of Ki and Ki’ were calculated by nonlinear regression from the substrate velocity curves. […]

C=CCOc1ccc(CCN(CC=C)Cc2ccc(OC)c(OCc3ccccc3)c2)cc1 [Compound 6, N-allyl-N-(3-benzyloxy-4-methoxybenzyl)-2-(4-allyloxyphenyl)ethan-1-amine]
IC50 [1]: > 10 µM
residual activity of MAO-B ([1]; 1 and 10 µM): higher than 68%
Ki′ ([2]; hBuChE, enzyme-substrate complex, nonlinear regression): 347 ± 79 nM
Ki ([2]; hBuChE, substrate butyrylthiocholine, nonlinear regression): 60.3 ± 11.6 nM
type of hBuChE inhibition ([2]; sum-of-squares F-test, p < 0.05, Lineweaver–Burk plot): mixed type of inhibition
